Measurements: the pKa sets of Baltruschat and Czodrowski (2020)

Conditions: acidic group

| pKa | SMILES |
| --- | --- |
| 8.15 | O=C1C[C@H]2C(=O)NC(=O)[C@H]2N1 |
| 3.79 | O=C(O)c1cc2ccccc2[nH]1 |
| 11.5 | COc1ccc(S(=O)(=O)NCc2ccccc2)cc1 |
| 9.6 | CCc1cc(O)cc(C)c1Cl |
| 4.7 | C=CC[NH2+]CCCCCCCCCCC(=O)O |
| 10.6 | CC(=N\O)/C(CN(C)C)=N\O |
| 7.4 | Oc1cccc2nnccc12 |
| 9.85 | Cc1nnc(C)n1N |
| 4.56 | O=Cc1ccccc1C(=O)O |
| 3.1 | CC(C)NC(=S)S |
| 11.5 | C/C(=C\c1cc(C(C)(C)C)c(O)c(C(C)(C)C)c1)C(=O)[O-] |
| 3.42 | CC(C)(C)c1ccc(C(=O)/C=C/C(=O)O)cc1 |
| 3.7 | CCOCCn1c(N2CCC[NH+](CCCCn3cc(C(=O)O)cn3)CC2)[nH+]c2ccccc21 |
| 8.8 | O=C1NC(=O)c2c1cccc2[N+](=O)[O-] |
| 3.77 | Cc1cc(Br)ccc1C(=O)O |
| 9.66 | OCc1cccc(CO)c1O |
| 10.6 | CC(=N\O)/C(C)=N/O |
| 8.22 | NC(=O)CS |
| 9.02 | C[n+]1ccc(C(=O)Cc2ccccc2)cc1 |
| 10.6 | O=S(=O)([O-])c1c(O)ccc2[nH]ncc12 |
| 9.72 | C/C(=N/O)c1ccc([O-])cc1O |

| pKa | SMILES |
| --- | --- |
| 11.9 | O=C1Nc2ccccc2C1=O |
| 5.28 | O=C(O)c1ccc[nH+]c1[O-] |
| 11.7 | O=C(c1ccc([N+](=O)[O-])cc1)c1cc[nH]n1 |
| 2.58 | N#CC(C#N)=C(N)C(C#N)C#N |
| 3.38 | O=C(O)CS |
| 2.84 | CS(=O)(=O)c1ccc(NS(=O)(=O)C(F)(F)F)cc1 |
| 4.86 | O=C(O)CC[C@H]1CC[C@H](O)CC1 |
| 8.01 | CCc1cc2c(C)cc(=O)oc2cc1O |
| 7.4 | O=Cc1cc(Br)ccc1O |
| 6.2 | Cc1nc2c(=O)[nH]c(=O)[nH]c2n1C |
| 8.91 | O=S(=O)([O-])c1ccc(O)cc1 |
| 8.27 | O=c1cc(-c2ccc(O)cc2)oc2ccccc12 |
| 3.15 | O=C(O)[C@@H]1O[C@H](Oc2ccc3[nH+]ccc(O)c3c2)[C@@H](O)[C@H](O)[C@H]1O |
| 11.4 | O=C1CCCC(=O)N1 |
| 5.9 | [NH3+][C@H]1CC(=O)NC1=O |
| 9.49 | NC(=O)CCCCCCCCC(=O)NO |
| 9.78 | C[N+](C)(C)CCCc1ccccc1O |
| 6.45 | Cc1cc(C[NH+](C)C)c(O)c(C[NH+](C)C)c1 |
| 10.9 | COc1ccccc1/C=N/O |
| 3.3 | Oc1onc2c1CC[NH+](Cc1ccccc1)CC2 |
| 7.4 | O=CC1c2ccccc2-c2ccccc21 |

| pKa | SMILES |
| --- | --- |
| 10.9 | O/N=C\C=C\c1ccccc1 |
| 5.04 | C[C@@H]1CCCC[C@@H]1C(=O)O |
| 3.09 | [NH3+]c1cccc(C(=O)O)c1 |
| 4.35 | C[N+](C)(C)c1cc([N+](=O)[O-])ccc1O |
| 7.15 | N#Cc1cccc(NS(=O)(=O)c2ccccc2)c1 |
| 1.33 | Nc1ccc[nH+]c1C(=O)O |
| 3.26 | CC(=O)c1c(C(=O)O)cccc1[N+](=O)[O-] |
| 6.33 | CCN(CC)c1nnn[nH]1 |
| 3.15 | O=C(O)[C@H](O)c1ccccc1[N+](=O)[O-] |
| 5.15 | CC(C)(C(N)=O)S(=O)(=O)NC(N)=O |
| 2.98 | CC(=O)[n+]1cccc(Cl)c1 |
| 8.81 | Oc1ccccc1F |
| 7.69 | COc1ccc(-c2nc3nnc(SC)nc3[nH]2)c(OC)c1 |
| 3.37 | Cc1ccccc1OC(C)C(=O)O (stereo not drawn) |
| 2.6 | N#CC(C#N)=C(Br)C(C#N)C#N |
| 4.9 | O=c1ccc(O)c(Br)cc1 |
| 8.45 | Oc1cccc2cnccc12 |
| 2.21 | Nc1nc[nH+]c(S)c1N |
| 6.35 | Fc1ccc(S)cc1 |
| 4.4 | CC(=O)[C@H]1CC=CC[C@@H]1C(=O)O |
| 4.8 | O=C1CCC(O)=C1O |

| pKa | SMILES |
| --- | --- |
| 10.1 | Cc1cc(O)ccc1O |
| 10.2 | Cc1cc2cccc(O)c2nc1C |
| 9.34 | NS(=O)(=O)c1ccc(F)cc1 |
| 12.1 | CCSC(C)(O)O |
| 11.1 | Nc1ccc(-c2ccc(/N=C/c3ccccc3O)cc2)cc1 |
| 11.4 | COc1ccc(NC(=S)c2ccccc2)cc1 |
| 4.6 | On1nnc2ccccc21 |
| 9.7 | CCOC(=O)c1c(C)nc(C)c(C(=O)OCC)c1-c1cccc(NS(=O)(=O)c2ccc(N)cc2)c1 |
| 10.5 | COc1cc(CN)ccc1O |
| 9.67 | O=c1[nH]c2ccccc2[nH]c1=O |
| 3.6 | O=C(O)/C=C/C(=O)CC(=O)CC(=O)O |
| 8.28 | Cc1ccc(O)cc1[N+](C)(C)C |
| 8.01 | O=C(c1ccccc1)c1ccc(O)cc1 |
| 4.54 | Cc1[nH]c(C(=O)[O-])c(C(=O)O)[nH+]1 |
| 6.33 | O=C(O)C12CCC(O)(CC1)CC2 |
| 5.81 | C[n+]1ccc2cccc(O)c2c1 |
| 3.9 | Cc1[nH]c(-c2ccccc2S)[nH+]c1C |
| 9.6 | Cc1cc(/N=N/c2nc3ccccc3s2)c(O)c2ncccc12 |
| 4.04 | O=C(O)CCCl |

| SMILES | pKa |
| --- | --- |
| O=c1[nH]c2ccccc2c(=O)o1 | 8.25 |
| O=C(O)C[Se]c1ccccc1[N+](=O)[O-] | 3.45 |
| CC(C)c1cccc(=O)c(O)c1 | 7.22 |
| CO | 15.5 |
| O=C(O)C[Se]c1ccccc1 | 3.75 |
| Oc1ccc(Cl)cc1 | 9.29 |
